Positions of bridges follow the written chain, without caps; N, C: chain ends. Non-standard residues stand in square brackets, D forms with d. No end group written: not given here.
Tests used:
KgpF [1] = assay: Prenylation of translated thioether-closed artificial cyclic peptides with KgpF, MALDI-TOF-MS analysis (Examples 1-9; 37° C., 18 hours); format: biochemical, Microcystis aeruginosa; parameters: key to DMAPP adduct 0 / DMAPP adduct 1: 0: N/A; 1: Nothing; 2: Very weak intensity; 3: Medium intensity; 4: Strong intensity; details: 2 mM DMAPP; for prenylation modification with KgpF (MALDI-TOF-MS): Example 3: 160 or 580 μM KgpF; for DMAPP adduct 1: MALDI-TOF-MS peak intensity of singly prenylated peptide; for DMAPP adduct 1 / DMAPP adduct 0: 160 μM KgpF; for DMAPP adduct 0: MALDI-TOF-MS peak intensity of unmodified peptide
Description: With regards to each of KgpF and OltF, heterogeneous co-expression of a gene synthesized after optimizing the codon of a gene derived from a producing strain was performed in Escherichia coli, followed by purification to obtain a prenylation enzyme.
The analysis was performed using UltrafleXtreme (Bruker Daltonics) or Autoflex II (Bruker Daltonics) and peptide calibration standard II (Bruker Daltonics).
In short, six kinds in total of peptides were obtained by translation and synthesis under (Conditions 1) of the artificial translation system developed by the present inventors. The peptides thus obtained were then reacted with 14.7 μM KgpF at 37° C. for 18 hours in the system shown in (Conditions 2). “DMAPP” used in (Conditions 2) is dimethylallyl pyrophosphoric acid.
(Conditions 1) • FIT system: v7s/v8.0.3 • 19aa-Met: 0.5 mM • ClAc-D or L-Trp-tRNA^fMetCUA: 90 μM • Reaction: 37° C., 60 min. • Scale: […] scale
(Conditions 2) • Translated mixture amount: 2.5 μL (mixture obtained under (Conditions 1)) • KgpF: 14.7 μM • DMAPP: 2 mM • Total amount: 15.7 μL • Reaction: 37° C., 18 hours
The YG280 sequences having the steric configuration of the N terminal Trp serving as an initiation residue of D-form and those of L-form were synthesized, so that two kinds of peptides were prepared in total. These two kinds of artificial cyclic peptides were obtained by translation and synthesis in the artificial translation system (Conditions 3) developed by the present inventors. The peptides thus obtained were then reacted with 53, 160, and 580 μM KgpF in a system shown in (Conditions 4) at 37° C. for 18 hours.
(Conditions 3) • FIT system: v7s/v8.0.3 • 19aa-Met: 0.5 mM • ClAc-D or L-Trp-tRNA^fMetCUA: 120 μM • Reaction: 37° C., 3 hours • Scale: 2.5 μL scale
(Conditions 4) • Translated mixture amount: 2.5 μL (mixture obtained under (Conditions 3)) • KgpF: 53, 160, 580 μM • DMAPP: 2 mM • Reaction: 37° C., 18 hours
(§1) The above three kinds of artificial cyclic peptides were obtained by translation and synthesis in the artificial translation system (Conditions 5) developed by the present inventors. The peptides thus obtained were then reacted with KgpF in the system shown below in (Conditions 6) at 37° C. for 18 hours.
(Conditions 5) • FIT system: v7s/v8.0.3 • 19aa-Met: 0.5 mM • ClAc-D or L-Trp-tRNA^fMetCUA: 90 μM • Reaction: 37° C., 60 min. • Scale: 2.5 μL scale
(Conditions 6) • Translated mixture amount: 2.5 μL (mixture obtained under (Conditions 5)) • KgpF: 160 or 580 μM • DMAPP: 2 mM • Reaction: 37° C., 18 hours
as §1, with “six” for “three”, “7)” for “5)”, “with 160 μM” for “with”, “shown” for “shown below”, “8)” for “6)”
(Conditions 7) • FIT system: v7s/v9.1 • 19aa-Met: 0.5 mM • ClAc-D-Tyr-tRNA^fMetCUA: 90 μM • Reaction: 37° C., 60 min. • Scale: 2.5 μL scale
(Conditions 8) • Translated mixture amount: 2.5 μL (mixture obtained under (Conditions 7)) • KgpF: 160 μM • DMAPP: 2 mM • Reaction: 37° C., 18 hours
as §1, with “9)” for “5)”, “with 160 μM” for “with”, “shown” for “shown below”, “10)” for “6)”
(Conditions 9) • FIT system: v7s/v9.1 • 19aa-Met: 0.5 mM • ClAc-D-Tyr-tRNA^fMetCUA: 90 μM • Reaction: 37° C., 60 min. • Scale: 2.5 μL scale
(Conditions 10) • Translated mixture amount: 2.5 μL (mixture obtained under (Conditions 9)) • KgpF: 160 μM • DMAPP: 2 mM • Reaction: 37° C., 18 hours
The above artificial cyclic peptides were obtained by translation and synthesis in the artificial translation system (Conditions 11) developed by the present inventors. […]

KgpF v 3.1 = assay: Prenylation of artificial cyclic peptides with 10 μM KgpF v 3.1 (Example 11; Table 7); format: biochemical, Microcystis aeruginosa; parameters: key: 5: strong intensity; 4: medium intensity; 3: weak intensity; 2: very weak intensity; 1: no peak; N/A: not observed; details: KgpF v 3.1 10 μM
Description: Reaction of the artificial cyclic peptide shown in Table 7 was made under conditions similar to (Conditions 11) and (Conditions 12) except that v8s/v11.1 was used as FIT system, KgpF v 3.1 was used as a prenylation modification enzyme, and the concentration of the KgpF v 3.1 was set at 10 μM. Here, KgpF v 3.1 is an enzyme having a higher purification degree and more improved specific activity than KgpF used under (Conditions 12).

OltF v 2.1 = assay: Modification test of thioether-closed artificial cyclic peptides with 9.13 μM OltF v 2.1 (Example 16; Tables 11 and 12); format: biochemical, Planktothrix; parameters: key: 5: strong intensity; 4: medium intensity; 3: weak intensity; 2: very weak intensity; 1: no peak; N/A: not observed; details: Table 11; OltF v 2.1 9.13 μM, DMAPP 2 mM, 37° C., 18 hours
Description: The artificial cyclic peptides shown in Table 11 and Table 12 were obtained by translation and synthesis in the artificial translation system (Conditions 23) developed by the present inventors. The peptides thus obtained were then reacted with 9.13 μM OltF in the system shown in (Conditions 24) at 37° C. for 18 hours. It is to be noted that OltF v 2.1 is an enzyme prepared from OltF used in (Conditions 22) while changing a purification manner.
(Conditions 23) • FIT system: v8s/v11.1 • 19aa-Met: 0.5 mM • ClAc-D or L-Tyr-tRNA^fMetCUA: 90 μM • Reaction: 37° C., 60 min. • Scale: 2.5 μL scale
(Conditions 24) • Translated mixture amount: 2.5 μL (mixture obtained under (Conditions 23)) • OltF v 2.1: 9.13 μM • DMAPP: 2 mM • Reaction: 37° C., 18 hours

KgpF [2] = assay: Prenylation of artificial cyclic peptides containing VW or WG sequence with 60 μM KgpF (Examples 12 and 13; Tables 8, 9, 10); format: biochemical, Microcystis aeruginosa; parameters: key: 5: strong intensity; 4: medium intensity; 3: weak intensity; 2: very weak intensity; 1: no peak; N/A: not observed; details: KgpF 60 μM, DMAPP 2 mM, 37° C., 18 hours
Description: (§2) The artificial cyclic peptides shown in Table 8 and Table 9 were obtained by translation and synthesis in the artificial translation system (Conditions 15) developed by the present inventors. The peptides thus obtained were then reacted with 60 μM KgpF in the system shown in (Conditions 16) at 37° C. for 18 hours.
(Conditions 15) • FIT system: v8s/v11.1 • 19aa-Met: 0.5 mM • ClAc-D-Tyr-tRNA^fMetCUA: 90 μM • Reaction: 37° C., 60 min. • Scale: 2.5 μL scale
(Conditions 16) • Translated mixture amount: 2.5 μL (mixture obtained under (Conditions 15)) • KgpF: 60 μM • DMAPP: 2 mM • Reaction: 37° C., 18 hours
as §2, with “10” for “8 and Table 9”, “17)” for “15)”, “18)” for “16)”
(Conditions 17) • FIT system: v8s/v11.1 • 19aa-Met: 0.5 mM • ClAc-D-Tyr-tRNA^fMetCUA: 90 μM • Reaction: 37° C., 60 min. • Scale: 2.5 μL scale
(Conditions 18) • Translated mixture amount: 2.5 μL (mixture obtained under (Conditions 17)) • KgpF: 60 μM • DMAPP: 2 mM • Reaction: 37° C., 18 hours

[3] = Table 8, VW sequence, various ring sizes
[4] = Table 9, VW sequence, various ring sizes
[5] = Table 10, W at various positions

Sequence of KgpF (as listed by the source): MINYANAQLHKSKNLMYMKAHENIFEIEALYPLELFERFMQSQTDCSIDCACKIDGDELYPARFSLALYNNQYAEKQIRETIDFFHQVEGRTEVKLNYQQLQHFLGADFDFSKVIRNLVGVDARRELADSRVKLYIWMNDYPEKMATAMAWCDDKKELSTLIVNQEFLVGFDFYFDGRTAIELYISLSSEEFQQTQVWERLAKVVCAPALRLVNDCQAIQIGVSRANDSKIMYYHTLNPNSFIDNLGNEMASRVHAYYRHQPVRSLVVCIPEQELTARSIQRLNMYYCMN
Sequence of OltF v 2.1 (as listed by the source): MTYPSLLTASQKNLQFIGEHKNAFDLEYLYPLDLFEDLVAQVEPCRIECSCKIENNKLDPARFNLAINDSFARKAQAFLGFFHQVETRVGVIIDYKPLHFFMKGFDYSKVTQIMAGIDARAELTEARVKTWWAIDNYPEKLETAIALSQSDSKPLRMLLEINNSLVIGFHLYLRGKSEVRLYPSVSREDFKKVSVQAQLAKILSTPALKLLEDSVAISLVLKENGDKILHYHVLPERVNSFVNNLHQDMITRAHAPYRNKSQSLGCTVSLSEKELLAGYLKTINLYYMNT

YG290-CM11: peptide having no Trp residue in the peptide chain (random region) (Ac-[dW]CDVSGRFGYFPC; thioether (positions not given here); also: thioether ring to Cys2 or Cys13)
prenylation modification with KgpF (MALDI-TOF-MS) (KgpF [1]): no modified product was found

YG291-PaktiL2 ({CH2CO}-[dY]WILITWPLVRRKC; thioether N-14 (inferred))
Peak intensity, The number of prenyl groups added 0 (KgpF v 3.1): 4 | Peak intensity, The number of prenyl groups added 1 (KgpF v 3.1): 4

YG292 ({CH2CO}-[dY]IRRPWVPIIYLGC; thioether N-14 (inferred))
Peak intensity, The number of prenyl groups added 0 (OltF v 2.1): 2 | Peak intensity, The number of prenyl groups added 1 (OltF v 2.1): 5

YG293 ({CH2CO}-[dY]TFRDVWIFYGSLLSRC; thioether N-17 (inferred))
Peak intensity, The number of prenyl groups added 0 (OltF v 2.1): 3 | Peak intensity, The number of prenyl groups added 1 (OltF v 2.1): 4

YG293-MaL4 ({CH2CO}-[dY]TFRDVWIFYGSLLSRC; thioether N-17 (inferred))
Peak intensity, The number of prenyl groups added 0 (KgpF v 3.1): 1 | Peak intensity, The number of prenyl groups added 1 (KgpF v 3.1): 5

YG295 ({CH2CO}-[dY]ISWNEFNSPNWRFITC; thioether N-17 (inferred); not fully specified)
Peak intensity, The number of prenyl groups added 0 (OltF v 2.1): 4 | Peak intensity, The number of prenyl groups added 1 (OltF v 2.1): 3 | Peak intensity, The number of prenyl groups added 2 (OltF v 2.1): 1

YG295-aML5 ({CH2CO}-[dY]ISWNEFNSPNWRFITC; thioether N-17 (inferred))
Peak intensity, The number of prenyl groups added 0 (KgpF v 3.1): 1 | Peak intensity, The number of prenyl groups added 1 (KgpF v 3.1): 5 | Peak intensity, The number of prenyl groups added 2 (KgpF v 3.1): 1

YG296 ({CH2CO}-[dY]WYYAWDQTYKAFPC; thioether N-15 (inferred))
Peak intensity, The number of prenyl groups added 0 (OltF v 2.1): 3 | Peak intensity, The number of prenyl groups added 1 (OltF v 2.1): 2 | Peak intensity, The number of prenyl groups added 2 (OltF v 2.1): 1

YG296-aMD5 ({CH2CO}-[dY]WYYAWDQTYKAFPC; thioether N-15 (inferred))
Peak intensity, The number of prenyl groups added 0 (KgpF v 3.1): 5 | Peak intensity, The number of prenyl groups added 1 (KgpF v 3.1): 3 | Peak intensity, The number of prenyl groups added 2 (KgpF v 3.1): 1

YG297 ({CH2CO}-[dY]RQFNRRTHEVWNLDC; thioether N-16 (inferred))
Peak intensity, The number of prenyl groups added 0 (OltF v 2.1): 5 | Peak intensity, The number of prenyl groups added 1 (OltF v 2.1): 4

YG298: YG280 mutant having only the N-terminal Trp residue remained ({CH2CO}-[dW]LNGDNNYSTPC; thioether N-12)
prenylation modification with KgpF (MALDI-TOF-MS) (KgpF [1]): no modified product was found

YG299 (Ac-[dY]CDVSGRWGYFPC; thioether (positions not given here); not fully specified (bridges))
Peak intensity, The number of prenyl groups added 0 (OltF v 2.1): 3 | Peak intensity, The number of prenyl groups added 1 (OltF v 2.1): 5

YG300-CM11(RFG > NWS): artificial cyclic peptide, template YCDVSGNWSYPC (SEQ ID NO 239)
DMAPP adduct 1 (KgpF [1]): 4 | DMAPP adduct 0 (KgpF [1]): 2

YG304-YG280(FFWFF): artificial cyclic peptide, template YLNGDFFWFFPC (SEQ ID NO 246) ({CH2CO}-[dY]LNGDFFWFFPC; thioether N-12)
DMAPP adduct 1 (KgpF [1]): 3 | DMAPP adduct 0 (KgpF [1]): 4

YG386 ({CH2CO}-[dY]VWCYPRG; thioether N-4)
Peak intensity, The number of prenyl groups added 0 (KgpF [2]; [3]): 1 | Peak intensity, The number of prenyl groups added 1 (KgpF [2]; [3]): 5

YG390 ({CH2CO}-[dY]RVWGYPC; thioether N-8)
Peak intensity, The number of prenyl groups added 0 (KgpF [2]; [3]): 1 | Peak intensity, The number of prenyl groups added 1 (KgpF [2]; [3]): 5

YG395 ({CH2CO}-[dY]HDYRVWGYHTPC; thioether N-13 (inferred))
Peak intensity, The number of prenyl groups added 0 (KgpF [2]; [4]): 1 | Peak intensity, The number of prenyl groups added 1 (KgpF [2]; [4]): 5

YG402 ({CH2CO}-[dY]WGHDYRVYHTYPC; thioether N-14 (inferred))
Peak intensity, The number of prenyl groups added 0 (KgpF [2]; [5]): 5 | Peak intensity, The number of prenyl groups added 1 (KgpF [2]; [5]): 1

YG411 ({CH2CO}-[dY]HDYRYHTYPVWGC; thioether N-14 (inferred))
Peak intensity, The number of prenyl groups added 0 (KgpF [2]; [5]): 1 | Peak intensity, The number of prenyl groups added 1 (KgpF [2]; [5]): 5

— patent US20220275534A1, “Peptide Library Production Method” (The University of Tokyo, priority 2018, published 2022)
